Where two headings read alike, the source gives them in different places.
Columns and labels:
[1] = molecular target: T1, (human) A2A adenosine receptor (Homo sapiens, UniProt P29274); assay: Radioligand binding test ([3H]CGS21680 displacement, hA2A HEK-293 cell membranes); settings: for IC50: [3H]-CGS 21680 25 nM, hA2A HEK-293 cell membrane, 25° C., 90 minutes, read-out: IC50 (nM), compounds binding to A2A adenosine receptor; for Ki: read-out: Ki (nM), inhibition constant for binding to A2A adenosine receptor
T1 construct: purchased PerkinElmer Research Products (Boston, Mass.); host or cells: HEK-293 cells, stably transfected; membrane preparation
Protocol: Cell membranes stably transfected with (human) A2A adenosine receptor were prepared in HEK-293 cells. The cell membranes were obtained from PerkinElmer Research Products (Boston, Mass.).
CGS 21680 (2-[p-(2-carboxyethyl)phenylethylamino]-5′-ethylcarboxamidoadenosine) was purchased from Selleck (Shanghai, CN).
The A2A adenosine receptors used were all expressed in the cell membranes. The compound was diluted 3 times serially with DMSO (Solarbio, D8371-250 ml) to generate compound source plates with 10 different concentrations (10 μM, 3.3 μM, 1.1 μM, 0.37 μM, 0.12 μM, 0.0412 μM, 0.0137 μM, 0.0046 μM, 0.0015 μM, 0.0005 μM), 250 nL of compound was added to 384-well Opti-plate, sealed with parafilm. […] (final 25 nM) was added to the diluted cell membrane and mixed well. 50 μL of the prepared dilution solution of cell membrane was transferred to the 384-well Opti-plate containing compound and incubated at 25° C. for 90 minutes. 100 μL of 0.5% Polyethyleneimine solution (PEI) was added to […]-96 GF/B filter plate, and soaked for 90 minutes at 4° C., then 500 μL of washing buffer/well (50 mM Tris-HCl, pH 7.4, 154 mM NaCl) was transferred with Cell Harvester to wash the […]-96 GF/B filter plate twice. The mixed system in the Opti-plate was transferred to the washed […]-96 GF/B filter plate, 500 μL of washing buffer/well (50 mM Tris-HCl, pH 7.4, 154 mM NaCl) was used to wash the […]-96 GF/B filter plate 9 times. Incubation was performed at 37° C. for 3 minutes. 40 μL of ULTIMA GOLD scintillation solution (Perkin Elmer, Cat #77-16061) was added to each well, CPM (count per minute) value was read by a MicroBeta liquid scintillation counter (PerkinElmer).

[2] = molecular target: human adenosine receptor A2A (Homo sapiens, UniProt P29274); assay: A2A adenosine receptor cAMP test (LANCE Ultra cAMP, hADORA2A-HEK293 cells); assay type: cell-based
From the text: A2A Adenosine Receptor cAMP Test
Experimental reagents and consumables: DMEM/F12, G418, Penicillin-Streptomycin, Versene Solution, HEPES, Hank's Buffered Saline Solution, PBS (pH 7.4, 1×, sterile), FBS, BSA Stabilizer 7.5%, Rolipram, NECA were separately purchased from Gibico, Hyclone and Sigma. LANCE® Ultra cAMP kit (Eu-cAMP tracer, Ulight-anti-cAMP reagent, cAMP detection buffer) and hADORA2A-HEK293 cells were purchased from PerkinElmer Research Products (Boston, Mass.). All other reagents were of analytical grade and obtained from commercial sources. 384-well polypropylene microplate and 384-well solid white plate were purchased from Labcyte and Corning, respectively.
Experimental instruments: TECAN automated liquid handling workstation, Echo Acoustic Liquid Handler and EnVison multimode plate reader were purchased from TECAN, Labcyte and […], respectively.
The cells stably expressing human adenosine receptor A2A (hADORA2A-HEK293 cells) were cultured in DMEM/F12 medium containing 10% FBS, 1× Penicillin-Streptomycin and 400 μg/ml G418 in a 37° C. and 5% CO2 environment. Before the experiment, the cells were digested with Versene solution, and the cells were collected by centrifugation at 200 g and room temperature for 5 minutes, and finally resuspended with assay buffer (Hank's buffered saline solution, containing 5 mM HEPES, 0.1% BSA stabilizer and 10 μM Rolipram, pH 7.4). The TECAN automated liquid handling workstation was used to dilute the compound in a 384-well polypropylene microplate with DMSO to 11 concentration points in a 3-fold gradient to prepare the compound source plate, in which the 11 concentration points of the compound were 10 mM, 3.33 mM, 1.11 mM., 0.37 mM, 0.12 mM, 0.041 mM, 0.013 mM, 4.57×10^−3 mM, 1.52×10^−3 mM, 5×10−4 mM and 1.7×10^−4 mM. The Echo Acoustic Liquid Handler (Labcyte) was used to transfer the test compound from the compound source plate to an assay plate, in which the transfer volume of the compound was 10 nl/well. The hADORA2A-HEK293 cell suspension was diluted with assay buffer to 30,000 cells/ml, and the cell suspension was transferred to the assay plate at a volume of 10 μl/well (300 cells/well). The assay plate was centrifuged at 150 g for 1 minute and pre-incubated at room temperature for 30 minutes. The Eu-cAMP tracer working solution (Eu-cAMP tracer 40 μl, cAMP detection buffer 1.96 ml) (5 μl/well) was added to the assay plate, and then the Ulight-anti-cAMP working solution (13 μl of Ulight-anti-cAMP reagent and 1.95 ml of cAMP detection buffer) (5 μl/well) was added to the assay plate. The assay plate was rotated at 150 g for 30 seconds and incubated at room temperature for 30 minutes. The EnVison multimode plate reader (PerkinElmer) was used determine the level of cyclic adenosine monophosphate in the final solution (λex=320 nm, λem=665 nm & 615 nm). The EC50 (nM) value of the compound interacting with the A2A adenosine receptor to stimulate the production of cyclic adenosine monophosphate was calculated and the titer of the compound function was expressed as the EC50 (nM) value.
When the test compounds interacted with A2AAR, the EC50 (nM) values for stimulating the production of cyclic AMP were shown in Table 2.

[3] = stimulating the production of cyclic AMP, read-out: cAMP EC50
[4] = stimulating the production of cyclic adenosine monophosphate, read-out: cAMP EC50 values

human adenosine receptor A2A, sequence (P29274 whole entry): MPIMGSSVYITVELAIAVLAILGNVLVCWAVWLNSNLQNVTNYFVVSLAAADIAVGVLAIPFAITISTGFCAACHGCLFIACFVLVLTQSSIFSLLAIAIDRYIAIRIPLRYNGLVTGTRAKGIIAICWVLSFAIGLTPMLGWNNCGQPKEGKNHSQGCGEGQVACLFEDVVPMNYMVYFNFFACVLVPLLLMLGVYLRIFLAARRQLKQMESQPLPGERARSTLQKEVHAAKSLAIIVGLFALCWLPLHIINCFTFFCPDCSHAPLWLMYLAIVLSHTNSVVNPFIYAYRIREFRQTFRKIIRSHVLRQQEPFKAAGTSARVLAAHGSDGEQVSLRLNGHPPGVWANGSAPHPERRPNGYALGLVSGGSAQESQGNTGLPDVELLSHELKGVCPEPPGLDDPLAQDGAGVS
T1 sequence (P29274 whole entry): as above

Compound	IC50 [1]	Ki [1]	agonistic activity at hA2AAR (cAMP production) [2]	EC50 [2, 3]	EC50 [2, 4]	melting point
OC[C@H]1O[C@@H](n2cnc3c2ncn2c(-c4ccc(OCc5ccccc5)c(OCc5ccccc5)c4)nnc32)[C@H](O)[C@@H]1O [Compound 3, (2R,3R,4S,5R)-2-{3-[3,4-di(benzyloxy)phenyl]-7H-[1,2,4]triazolo[3,4-i]purin-7-yl}-5-(hydroxymethyl)tetrahydrofuran-3,4-diol]	> 10000 nM	> 10000 nM				116 °C
OC[C@H]1O[C@@H](n2cnc3c2ncn2c(-c4ccc(-c5ccccc5)cc4)nnc32)[C@H](O)[C@@H]1O [Compound 8, (2R,3R,4S,5R)-2-{3-{[1,1′-biphenyl]-4-yl}-7H-[1,2,4]triazolo[3,4-i]purin-7-yl}-5-(hydroxymethyl)tetrahydrofuran-3,4-diol]	7510 nM	3510 nM				280 °C
CCCOc1ccc(-c2nnc3c4ncn([C@@H]5O[C@H](CO)[C@H](O)[C@@H]5O)c4ncn23)cc1 [Compound 9, (2R,3S,4R,5R)-2-{3-(4-propoxyphenyl)-7H-[1,2,4]triazolo[3,4-i]purin-7-yl}-5-(hydroxymethyl)tetrahydrofuran-3,4-diol]	4.3 nM	2 nM	no agonistic activity	> 10 µM	> 10 µM	118 °C
OC[C@H]1O[C@@H](n2cnc3c2ncn2c(-c4ccc(-c5ccccn5)cc4)nnc32)[C@@H](O)[C@H]1O [Compound 7, (2R,3S,4R,5R)-2-{3-[4-(pyridin-2-yl)phenyl]-7H-[1,2,4]triazolo[3,4-i]purin-7-yl}-5-(hydroxymethyl)tetrahydrofuran-3,4-diol]	> 10000 nM	> 10000 nM				172 °C
OC[C@H]1O[C@@H](n2cnc3c2ncn2c(-c4ccc(OCc5ccc(F)cc5)cc4)nnc32)[C@H](O)[C@@H]1O [Compound 4, (2R,3R,4S,5R)-2-{3-{4-[(4-fluorobenzyl)oxy]phenyl}-7H-[1,2,4]triazolo[3,4-i]purin-7-yl}-5-(hydroxymethyl)tetrahydrofuran-3,4-diol]	3.9 nM	1.8 nM	no agonistic activity	> 10 µM	> 10 µM	112 °C
OC[C@H]1O[C@@H](n2cnc3c2ncn2c(-c4cccc(OCc5ccccc5)c4)nnc32)[C@H](O)[C@@H]1O [Compound 5, (2R,3R,4S,5R)-2-{3-[3-(benzyloxy)phenyl]-7H-[1,2,4]triazolo[3,4-i]purin-7-yl}-5-(hydroxymethyl)tetrahydrofuran-3,4-diol]	6.2 nM	2.9 nM	no agonistic activity	> 10 µM	> 10 µM	76 °C
OC[C@H]1O[C@@H](n2cnc3c2ncn2c(-c4ccc(C(F)(F)F)cc4)nnc32)[C@@H](O)[C@H]1O [Compound 10, (2R,3S,4R,5R)-2-{3-[4-(trifluoromethyl)phenyl]-7H-[1,2,4]triazolo[3,4-i]purin-7-yl}-5-(hydroxymethyl)tetrahydrofuran-3,4-diol]	> 10000 nM	> 10000 nM				124 °C
CC(=O)Nc1ccc(-c2nnc3c4ncn([C@@H]5O[C@H](CO)[C@@H](O)[C@H]5O)c4ncn23)cc1 [Compound 1, N-{4-{7-[(2R,3R,4S,5R)-3,4-dihydroxy-5-(hydroxymethyl)tetrahydrofuran-2-yl]-7H-[1,2,4]triazolo[3,4-i]purin-3-yl}phenyl}acetamide]	6.4 nM	3 nM	no agonistic activity	> 10 µM	> 10 µM	132 °C
OC[C@H]1O[C@@H](n2cnc3c2ncn2c(-c4ccc(C(F)(F)F)cc4C(F)(F)F)nnc32)[C@H](O)[C@@H]1O [Compound 6, (2R,3R,4S,5R)-2-{3-[2,4-di(trifluoromethyl)phenyl]-7H-[1,2,4]triazolo[3,4-i]purin-7-yl}-5-(hydroxymethyl)tetrahydrofuran-3,4-diol]	> 10000 nM	> 10000 nM				

More lines, now with the values ahead:

IC50 [1]	Ki [1]	agonistic activity at hA2AAR (cAMP production) [2]	EC50 [2, 3]	EC50 [2, 4]	melting point	Compound
3.9 nM	1.8 nM	no agonistic activity	> 10 µM	> 10 µM	216 °C	OC[C@H]1O[C@@H](n2cnc3c2ncn2c(-c4cncs4)nnc32)[C@@H](O)[C@H]1O [Compound 12, (2R,3S,4R,5R)-2-{3-(thiazol-5-yl)-7H-[1,2,4]triazolo[3,4-i]purin-7-yl}-5-(hydroxymethyl)tetrahydrofuran-3,4-diol]
> 10000 nM	> 10000 nM				222 °C	OC[C@H]1O[C@@H](n2cnc3c2ncn2c(-c4ccc(Br)cn4)nnc32)[C@H](O)[C@@H]1O [Compound 11, (2R,3R,4S,5R)-2-{3-(5-bromopyridin-2-yl)-7H-[1,2,4]triazolo[3,4-i]purin-7-yl}-5-(hydroxymethyl)tetrahydrofuran-3,4-diol]
> 10000 nM	> 10000 nM				130 °C	OC[C@H]1O[C@@H](n2cnc3c2ncn2c(C4CCCCC4)nnc32)[C@H](O)[C@@H]1O [Compound 13, (2R,3R,4S,5R)-2-{3-cyclohexyl-7H-[1,2,4]triazolo[3,4-i]purin-7-yl}-5-(hydroxymethyl)tetrahydrofuran-3,4-diol]
3.9 nM	1.8 nM	no agonistic activity	> 10 µM	> 10 µM	84 °C	OC[C@H]1O[C@@H](n2cnc3c2ncn2c(C4CCCC4)nnc32)[C@H](O)[C@@H]1O [Compound 2, (2R,3R,4S,5R)-2-{3-cyclopentyl-7H-[1,2,4]triazolo[3,4-i]purin-7-yl}-5-(hydroxymethyl)tetrahydrofuran-3,4-diol]

— patent publication US20220363710A1, “SMALL-MOLECULE COMPOUND HAVING A2A ADENOSINE RECEPTOR ANTAGONISM” (ACADEMY OF MILITARY MEDICAL SCIENCES, priority 2019, published 2022)
